One experiment addresses T1, Rat SERT (Rattus norvegicus, UniProt P31652).
T1 construct: A rat brain without cerebellum (Zivic Laboratories, Inc.—Pittsburgh, Pa.) was homogenized; tissue Zivic Laboratories, Inc; host or cells: rat brain without cerebellum, membrane preparation
Put plainly: Rat brain SERT [3H]-citalopram binding. Particulars: rat brain membranes, 0.6 nM [3H]-Citalopram, 60 min at 25° C. As to the method:
The supernatant was removed and re-centrifuged at 15,000 rpm for 30 min. […] Membranes were incubated with 0.6 nM [^3H]-Citalopram plus/minus test compounds for 60 min at 25° C. and harvested by rapid filtration over GF/C glass fiber filters (pretreated with 0.3% polyethylenimine) followed by four washes with ice-cold buffer.

The target of experiment [1] is T2, human H3 receptor (Homo sapiens, UniProt Q9Y5N1).
T2 construct: expressed in transfected cells
T2 sequence (Q9Y5N1 whole entry): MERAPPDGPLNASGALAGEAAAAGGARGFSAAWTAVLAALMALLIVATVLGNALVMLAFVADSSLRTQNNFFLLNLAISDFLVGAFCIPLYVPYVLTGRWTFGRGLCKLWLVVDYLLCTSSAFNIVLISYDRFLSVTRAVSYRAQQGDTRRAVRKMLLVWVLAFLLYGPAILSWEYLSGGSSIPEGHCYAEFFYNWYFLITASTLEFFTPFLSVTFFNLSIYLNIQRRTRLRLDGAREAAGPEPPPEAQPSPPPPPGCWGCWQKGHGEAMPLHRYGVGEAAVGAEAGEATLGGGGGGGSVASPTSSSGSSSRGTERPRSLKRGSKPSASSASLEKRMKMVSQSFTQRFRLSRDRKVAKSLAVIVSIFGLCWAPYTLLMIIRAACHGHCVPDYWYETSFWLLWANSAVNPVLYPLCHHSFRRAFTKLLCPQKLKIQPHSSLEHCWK
The experiment can be described thus: H3 receptor binding. The settings on record: cloned human H3 receptor stably expressed in SK-N-MC cells.

The target of experiment [2] is T2, human H3 receptor. Put plainly: Cyclic AMP accumulation (β-galactosidase reporter). The settings on record: for pA2: SK-N-MC cells expressing human H3 receptor and reporter, histamine agonist, forskolin 5 μM, Schild regression of pEC50 values. Format: cell-based. The method, then:
Sublines of SK—N-MC cells were created that expressed a reporter construct and the human H3 receptor. The reporter gene (β-galactosidase) is under the control of multiple cyclic AMP responsive elements. In 96-well plates, histamine was added directly to the cell media followed 5 min later by an addition of forskolin (5 μM final concentration). When appropriate, antagonists were added 10 min prior to agonist addition. After a 6-h incubation at 37° C., the media was aspirated and the cells washed with 200 μL of phosphate-buffered saline followed by a second aspiration. Cells were lysed with 25 μL 0.1× assay buffer (10 mM Na-phosphate, pH 8, 0.2 mM MgSO4, 0.01 mM MnCl2) and incubated at rt for 10 min. […] Color was developed using 25 μL of 1 mg/mL substrate solution (chlorophenolred β-D galactopyranoside; Roche Molecular Biochemicals, Indianapolis, Ind.).

The target of a further experiment is T3, human SERT (Homo sapiens, UniProt P31645).
T3 construct: expressed in transfected cells; host or cells: HEK293 membranes
T3 sequence (P31645 whole entry): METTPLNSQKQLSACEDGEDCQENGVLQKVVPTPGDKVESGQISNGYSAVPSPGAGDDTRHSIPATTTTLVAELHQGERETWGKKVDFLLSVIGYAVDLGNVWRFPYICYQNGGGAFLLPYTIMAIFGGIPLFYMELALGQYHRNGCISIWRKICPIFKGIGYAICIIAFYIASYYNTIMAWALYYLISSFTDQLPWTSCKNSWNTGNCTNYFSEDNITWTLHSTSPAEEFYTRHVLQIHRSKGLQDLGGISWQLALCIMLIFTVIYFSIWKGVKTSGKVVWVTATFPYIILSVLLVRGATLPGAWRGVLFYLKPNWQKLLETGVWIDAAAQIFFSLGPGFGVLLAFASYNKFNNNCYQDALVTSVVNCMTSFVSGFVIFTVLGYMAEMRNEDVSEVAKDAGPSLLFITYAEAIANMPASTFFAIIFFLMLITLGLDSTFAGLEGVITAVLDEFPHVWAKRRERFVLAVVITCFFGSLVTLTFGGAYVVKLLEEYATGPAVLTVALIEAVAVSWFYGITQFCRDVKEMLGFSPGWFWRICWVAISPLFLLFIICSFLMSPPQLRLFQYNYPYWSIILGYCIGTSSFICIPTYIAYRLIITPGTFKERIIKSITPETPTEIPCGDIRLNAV
The experiment can be described thus: Human SERT 3H-citalopram binding. The settings on record: HEK293 membranes expressing the human SERT, rt 1 h. The method, then: Homogenized HEK293 (Human Embryonic Kidney) membranes expressing the human SERT were incubated with ^3H-citalopram (SERT) at rt for 1 h in 50 mM Tris, 120 mM NaCl, 5 mM KCl (pH 7.4). […] The membranes were washed and the radioactivity was counted as above.

T1 sequence (P31652 whole entry): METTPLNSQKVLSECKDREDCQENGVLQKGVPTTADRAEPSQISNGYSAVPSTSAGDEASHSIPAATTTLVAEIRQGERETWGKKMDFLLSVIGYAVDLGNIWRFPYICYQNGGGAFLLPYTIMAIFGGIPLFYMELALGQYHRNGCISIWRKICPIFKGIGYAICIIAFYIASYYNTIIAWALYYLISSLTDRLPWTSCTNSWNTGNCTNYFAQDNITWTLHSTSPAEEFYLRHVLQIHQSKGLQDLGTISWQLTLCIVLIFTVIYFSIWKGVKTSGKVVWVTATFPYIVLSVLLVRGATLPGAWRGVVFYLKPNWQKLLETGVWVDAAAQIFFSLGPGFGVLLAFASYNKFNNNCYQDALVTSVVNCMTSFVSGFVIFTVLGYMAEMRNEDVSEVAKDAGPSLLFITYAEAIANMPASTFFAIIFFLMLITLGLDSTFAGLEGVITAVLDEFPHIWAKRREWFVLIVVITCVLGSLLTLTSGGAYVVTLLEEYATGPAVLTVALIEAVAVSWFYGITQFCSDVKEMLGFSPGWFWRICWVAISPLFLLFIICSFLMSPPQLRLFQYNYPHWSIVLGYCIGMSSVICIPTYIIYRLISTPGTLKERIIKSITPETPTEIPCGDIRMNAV

With `CNCc1cc(C#CCCN2CCOCC2)ccc1Oc1ccc(F)cc1Cl` [Example 28, [2-(2-Chloro-4-fluoro-phenoxy)-5-(4-morpholin-4-yl-but-1-ynyl)-benzyl]-methyl-amine], the Ki was 3.4 nM at Rat SERT, 6 nM on human H3 receptor [1] and 3.6 nM at human SERT. Besides, the pA2 on human H3 receptor [2] turned out to be 8.78.
Taken in the same sequence, the figures for `CNCc1cc(C#CCCN2CCOCC2)ccc1Oc1ccc(Cl)c(C(F)(F)F)c1` [Example 27, [2-(4-Chloro-3-trifluoromethyl-phenoxy)-5-(4-morpholin-4-yl-but-1-ynyl)-benzyl]-methyl-amine] were 7.3 nM, 13 nM, 17 nM and 7.89.
Taken in the same sequence, the figures for `CNCc1cc(C#CCCN2CCOCC2)ccc1Oc1ccc(C(F)(F)F)cc1` [Example 7, Methyl-[5-(4-morpholin-4-yl-but-1-ynyl)-2-(4-trifluoromethyl-phenoxy)-benzyl]-amine] were 2 nM, 7.3 nM, 2.7 nM and 7.90.
As for `CNCc1cc(C#CCCN2CCOCC2)ccc1Oc1cccc(Cl)c1` [Example 12, [2-(3-Chloro-phenoxy)-5-(4-morpholin-4-yl-but-1-ynyl)-benzyl]-methyl-amine], the Ki is 3 nM on Rat SERT, 3 nM at human H3 receptor [1] and 7.3 nM on human SERT. This compound also registered a pA2 on human H3 receptor [2] of 8.58.
Turning to `C(#Cc1ccc(Oc2cccnc2)c(CNC2CC2)c1)CCN1CCOCC1` [Example 23, Cyclopropyl-[5-(4-morpholin-4-yl-but-1-ynyl)-2-(pyridine-3-yloxy)-benzyl]-amine], the Ki came to 18 nM on Rat SERT, 0.7 nM at human H3 receptor [1] and 58 nM at human SERT. Also, the Kb on human H3 receptor [2] (read-out: pA2 (converted)) is 0.251 nM.
Take `CNCc1cc(C#CCCN2CCOCC2)ccc1Oc1cccc(F)c1` [Example 8, [2-(3-Fluoro-phenoxy)-5-(4-morpholin-4-yl-but-1-ynyl)-benzyl]-methyl-amine]: the Ki on Rat SERT came out at 10 nM; on human H3 receptor [1], 3 nM; at human SERT, 24 nM. On human H3 receptor [2], this compound registered a pA2 of 8.45.
The corresponding values for `CNCc1cc(C#CCCN(C)C2CC2)ccc1Oc1ccc(SC)cc1` [Example 16, Cyclopropyl-methyl-{4-[3-methylaminomethyl-4-(4-methylsulfanyl-phenoxy)-phenyl]-but-3-ynyl}-amine] are 1.3 nM, 6.1 nM, 1.1 nM and 9.10.

By Ki is commonly meant a dissociation constant, usually derived from enzyme kinetics or from competition with a known ligand. A lower Ki goes with a stronger hold on the target. The term pA2 denotes the negative logarithm of the molar antagonist concentration that doubles the agonist concentration needed for the same response.

The record behind these values is US7767666B2, “Butyl and butynyl benzyl amine compounds” (Janssen Pharmaceutica NV, priority 2006, dated 2010).
